# Assay results as given in PMC12056667 (Chemical Science, 2025).
# Where two headings read alike, the source gives them in different places.
# What was measured:
# [1] = system: E. coli TOP10 containing plasmid pBAD-TOPO-Tet(X4); test: Broth microdilution MIC and checkerboard assay; format: cell-based, Escherichia coli; details: for MIC: Escherichia coli; for Combination (antibiotic/inhibitor) MIC: inhibitor: inhibitor in combination with tigecycline; for Combination (antibiotic/inhibitor) MIC: inhibitor / Combination (antibiotic/inhibitor) MIC: antibiotic / Combination (Antibiotic/Inhibitor) MICs: antibiotic / Combination (Antibiotic/Inhibitor) MICs: inhibitor: lowest FICI; for Combination (antibiotic/inhibitor) MIC: antibiotic: tigecycline in combination with the inhibitor; for Tet(X) inhibitor MIC: alone; for reduction of the tigecycline MIC: at high concentrations of inhibitor
# Summary of the method: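 E. coli TOP10 with pBAD-TOPO-Tet(X4), […], tested by CLSI broth microdilution in CAMHB, ~1.5 × 10^6 cfu mL^−1 inoculum, 37 °C, 18 h. Checkerboard of seven 2-fold inhibitor dilutions × ten dilutions; growth read visually ± resazurin; FICI = FICA + FICB.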
# [2] = system: Acinetobacter spp. NT3-1 – tet(X3); test: microbe, parasite or virus in culture; format: cell-based; details: for MIC: Acinetobacter, read-out: Tet(X) Inhibitor MIC, alone; for Combination (Antibiotic/Inhibitor) MICs: inhibitor / Combination (Antibiotic/Inhibitor) MICs: antibiotic: lowest FICI
# Experimental: (§1) MIC tests and checkerboard assays were performed in U-bottom, 96-well microtiter plates using a modified broth microdilution protocol following CLSI guidelines. Cation-adjusted Mueller-Hinton Broth (CAMHB) was prepared fresh on the day of testing.[74] In brief, assays were set up in a total volume of 100 μL per well and titrations comprised seven 2-fold dilutions of inhibitors and ten 2-fold dilutions of tigecycline in CAMHB. Bacterial colonies were selected from an overnight culture on MHA plates (supplemented with 0.2%w/vL-arabinose for E. coli TOP10 containing pBAD-TOPO-Tet(X4)) and were suspended in 0.9% saline solution to achieve a 0.5 McFarland standard. A 100 μL aliquot of this suspension was then diluted into 9.9 mL of CAMHB to yield approximately 1.5 × 10^6 cfu mL^−1. 50 μL of the suspension was then added to each well of a microtiter plates. Plates were incubated at 37 °C for 18 h. At least 2 replicates were conducted for each combination. E. coli TOP10 + pBAD-TOPO-Tet(X4) cells were grown in the absence and presence of 0.2%w/vL-arabinose. Analysis of the MIC and checkerboard results were carried out by visual inspection of growth, with and without resazurin dye, an oxidation–reduction indicator.[75] As a measure of synergy, fractional inhibitory concentration index (FICI) was calculated as FICA + FICB, where FICA and FICB are the MICcombination/MICalone for each agent, respectively.[76] Results were interpreted as follows: synergistic (<0.5), indifferent (1.0–4.0) or antagonistic (>4.0).[64] In cases where the MIC exceeded or was below the measured range, the borderline value was taken to calculate the FIC index.
# [3] = system: Salmonella enterica T-2a – tet(X4); test: microbe, parasite or virus in culture; format: cell-based; details: for MIC: Salmonella enterica, read-out: Tet(X) Inhibitor MIC; for Combination (Antibiotic/Inhibitor) MICs: inhibitor / Combination (Antibiotic/Inhibitor) MICs: antibiotic: lowest FICI
# Experimental: as §1
# [4] = read-out: Tet(X) Inhibitor MIC, alone, without L-arabinose induction
# [5] = read-out: Tet(X) inhibitor MIC, alone, induced with 0.2%w/v L-arabinose
# [6] = with tigecycline, 0.2%w/v L-arabinose
# [7] = with tigecycline, without L-arabinose
# [8] = inhibitor in combination with tigecycline
# [9] = tigecycline in combination with the inhibitor
# [10] = induced with 0.2%w/v L-arabinose
# [11] = with doxycycline, 0.2%w/v L-arabinose
# [12] = with doxycycline, no L-arabinose
# [13] = with tetracycline, 0.2%w/v L-arabinose
# [14] = with tetracycline, no L-arabinose
compound,measurement,setting,value
Cc1c2c(c(O)c3c(O)cccc13)C(=O)[C@]1(O)C(=O)C(C(N)=O)=C(O)[C@@H](N(C)C)[C@@H]1C2 [Anhydrotetracycline],MIC,[1]; [4],8 µg/mL
same,MIC,[1]; [5],8 µg/mL
same,Combination (antibiotic/inhibitor) MIC: inhibitor,[1]; 0.2%w/v L-arabinose,2 µg/mL
same,Combination (antibiotic/inhibitor) MIC: inhibitor,[1]; without L-arabinose,8 µg/mL
same,Combination (antibiotic/inhibitor) MIC: antibiotic,[1]; 0.2%w/v L-arabinose,0.5 µg/mL
same,Combination (antibiotic/inhibitor) MIC: antibiotic,[1]; without L-arabinose,0.25 µg/mL
same,FICI,[1]; [6],0.4
same,Outcome,[1]; [6],Synergy (synergy (≤0.5))
same,FICI,[1]; [7],2
same,Outcome,[1]; [7],indifferent (indifferent (0.5-4.0))
same,MIC,[2]; Acinetobacter spp. NT3-1,2 µg/mL
same,Combination (Antibiotic/Inhibitor) MICs: inhibitor,[2]; [8],0.25 µg/mL
same,Combination (Antibiotic/Inhibitor) MICs: antibiotic,[2]; [9],0.5 µg/mL
same,FICI,[2]; with tigecycline,0.3
same,Outcome,[2]; with tigecycline,synergy (synergy (< 0.5))
same,MIC,[3],32 µg/mL
same,Combination (Antibiotic/Inhibitor) MICs: inhibitor,[3]; [8],16 µg/mL
same,Combination (Antibiotic/Inhibitor) MICs: antibiotic,[3]; [9],8 µg/mL
same,FICI,[3]; with tigecycline,0.8
same,Outcome,[3]; with tigecycline,indifferent (indifferent (0.5-4.0))
O=C(c1ccc(OCCN2CCCCC2)cc1)c1c(-c2ccc(O)cc2)sc2cc(O)ccc12 [Raloxifene],MIC,[1]; [4],> 128 µg/mL
same,MIC,[1]; [5],> 128 µg/mL
same,Combination (antibiotic/inhibitor) MIC: inhibitor,[1]; 0.2%w/v L-arabinose,128 µg/mL
same,Combination (antibiotic/inhibitor) MIC: inhibitor,[1]; without L-arabinose,> 128 µg/mL
same,Combination (antibiotic/inhibitor) MIC: antibiotic,[1]; 0.2%w/v L-arabinose,0.5 µg/mL
same,Combination (antibiotic/inhibitor) MIC: antibiotic,[1]; without L-arabinose,0.25 µg/mL
same,FICI,[1]; [6],1.1
same,Outcome,[1]; [6],Indifferent (indifferent (0.5–4.0))
same,FICI,[1]; [7],2
same,Outcome,[1]; [7],indifferent (indifferent (0.5-4.0))
same,MIC,[2]; Acinetobacter spp. NT3-1,4 µg/mL
same,Combination (Antibiotic/Inhibitor) MICs: inhibitor,[2]; [8],2 µg/mL
same,Combination (Antibiotic/Inhibitor) MICs: antibiotic,[2]; [9],2 µg/mL
same,FICI,[2]; with tigecycline,1
same,Outcome,[2]; with tigecycline,indifferent (indifferent (0.5-4.0))
same,MIC,[3],> 128 µg/mL
same,Combination (Antibiotic/Inhibitor) MICs: inhibitor,[3]; [8],128 µg/mL
same,Combination (Antibiotic/Inhibitor) MICs: antibiotic,[3]; [9],16 µg/mL
same,FICI,[3]; with tigecycline,1.5
same,Outcome,[3]; with tigecycline,indifferent (indifferent (0.5-4.0))
CN1CCN(CCCN2c3ccccc3Sc3ccc(C(F)(F)F)cc32)CC1 [Trifluoperazine],MIC,[1]; [4],64 µg/mL
same,Tet(X) inhibitor MIC,[1]; [10],64 µg/mL
same,Tet(X) inhibitor MIC,"[1]; induced with 0.2%w/v L-arabinose, listed as trifluoperazine",16 to 64 µg/mL
same,reduction of the tigecycline MIC,[1]; 0.2%w/v L-arabinose,2–4 fold
same,Combination (antibiotic/inhibitor) MIC: inhibitor,[1]; 0.2%w/v L-arabinose,8 µg/mL
same,Combination (antibiotic/inhibitor) MIC: inhibitor,[1]; without L-arabinose,32 µg/mL
same,Combination (antibiotic/inhibitor) MIC: antibiotic,[1]; 0.2%w/v L-arabinose,2 µg/mL
same,Combination (antibiotic/inhibitor) MIC: antibiotic,[1]; without L-arabinose,0.13 µg/mL
same,FICI,[1]; [6],0.6
same,Outcome,[1]; [6],Indifferent (indifferent (0.5–4.0))
same,FICI,"[1]; with tigecycline, 0.2%w/v L-arabinose, listed as trifluoperazine",0.5-1
same,FICI,[1]; [7],1
same,Outcome,[1]; [7],indifferent (indifferent (0.5-4.0))
same,MIC,[2]; Acinetobacter spp. NT3-1,16 µg/mL
same,Combination (Antibiotic/Inhibitor) MICs: inhibitor,[2]; [8],16 µg/mL
same,Combination (Antibiotic/Inhibitor) MICs: antibiotic,[2]; [9],4 µg/mL
same,FICI,[2]; with tigecycline,2
same,Outcome,[2]; with tigecycline,indifferent (indifferent (0.5-4.0))
same,MIC,[3],> 128 µg/mL
same,Combination (Antibiotic/Inhibitor) MICs: inhibitor,[3]; [8],64 µg/mL
same,Combination (Antibiotic/Inhibitor) MICs: antibiotic,[3]; [9],16 µg/mL
same,FICI,[3]; with tigecycline,1
same,Outcome,[3]; with tigecycline,indifferent (indifferent (0.5-4.0))
[H]/N=C(/NCCCCC)N/N=C/c1c[nH]c2ccc(OC)cc12 [Tegaserod],MIC,"[1]; read-out: Tet(X) Inhibitor MIC, alone, 0.2%w/v L-arabinose (Table S7)",16 µg/mL
same,MIC,[1]; [4],16 µg/mL
same,MIC,[1]; [5],16 to 64 µg/mL
same,Tet(X) inhibitor MIC,[1]; [10],16 µg/mL
same,reduction of the tigecycline MIC,[1]; 0.2%w/v L-arabinose,2–4 fold
same,Combination (Antibiotic/Inhibitor) MICs: antibiotic,"[1]; doxycycline with tegaserod, 0.2%w/v L-arabinose",16 µg/mL
same,Combination (Antibiotic/Inhibitor) MICs: antibiotic,"[1]; doxycycline with tegaserod, no L-arabinose",8 µg/mL
same,Combination (antibiotic/inhibitor) MIC: inhibitor,[1]; 0.2%w/v L-arabinose,8 µg/mL
same,Combination (antibiotic/inhibitor) MIC: inhibitor,[1]; without L-arabinose,16 µg/mL
same,Combination (Antibiotic/Inhibitor) MICs: inhibitor,"[1]; tegaserod with doxycycline, 0.2%w/v L-arabinose",4 µg/mL
same,Combination (Antibiotic/Inhibitor) MICs: inhibitor,"[1]; tegaserod with doxycycline, no L-arabinose",0.5 µg/mL
same,Combination (Antibiotic/Inhibitor) MICs: inhibitor,"[1]; tegaserod with tetracycline, 0.2%w/v L-arabinose",8 µg/mL
same,Combination (Antibiotic/Inhibitor) MICs: inhibitor,"[1]; tegaserod with tetracycline, no L-arabinose",4 µg/mL
same,Combination (Antibiotic/Inhibitor) MICs: antibiotic,"[1]; tetracycline with tegaserod, 0.2%w/v L-arabinose",64 µg/mL
same,Combination (Antibiotic/Inhibitor) MICs: antibiotic,"[1]; tetracycline with tegaserod, no L-arabinose",16 µg/mL
same,Combination (antibiotic/inhibitor) MIC: antibiotic,[1]; 0.2%w/v L-arabinose,1 µg/mL
same,Combination (antibiotic/inhibitor) MIC: antibiotic,[1]; without L-arabinose,0.25 µg/mL
same,FICI,[1]; [11],0.8
same,Outcome,[1]; [11],indifferent (indifferent (0.5-4.0))
same,FICI,[1]; [12],1.0
same,Outcome,[1]; [12],indifferent (indifferent (0.5-4.0))
same,FICI,[1]; [13],1.0
same,Outcome,[1]; [13],indifferent (indifferent (0.5-4.0))
same,FICI,[1]; [14],2.0
same,Outcome,[1]; [14],indifferent (indifferent (0.5-4.0))
same,FICI,[1]; [6],0.8
same,Outcome,[1]; [6],Indifferent (indifferent (0.5–4.0))
same,FICI,"[1]; with tigecycline, 0.2%w/v L-arabinose, listed as tegaserod",0.5-1
same,FICI,[1]; [7],2
same,Outcome,[1]; [7],indifferent (indifferent (0.5-4.0))
same,MIC,[2]; Acinetobacter spp. NT3-1,4 µg/mL
same,Tet(X) inhibitor MIC,"[2]; alone, Acinetobacter spp. NT3-1",8 µg/mL
same,Combination (Antibiotic/Inhibitor) MICs: antibiotic,[2]; doxycycline with tegaserod,4 µg/mL
same,Combination (Antibiotic/Inhibitor) MICs: inhibitor,[2]; [8],2 µg/mL
same,Combination (Antibiotic/Inhibitor) MICs: inhibitor,[2]; tegaserod with doxycycline,4 µg/mL
same,Combination (Antibiotic/Inhibitor) MICs: inhibitor,[2]; tegaserod with tetracycline,4 µg/mL
same,Combination (Antibiotic/Inhibitor) MICs: antibiotic,[2]; tetracycline with tegaserod,16 µg/mL
same,Combination (Antibiotic/Inhibitor) MICs: antibiotic,[2]; [9],0.5 µg/mL
same,FICI,[2]; with doxycycline,1.0
same,Outcome,[2]; with doxycycline,indifferent (indifferent (0.5-4.0))
same,FICI,[2]; with tetracycline,0.8
same,Outcome,[2]; with tetracycline,indifferent (indifferent (0.5-4.0))
same,FICI,[2]; with tigecycline,0.6
same,Outcome,[2]; with tigecycline,indifferent (indifferent (0.5-4.0))
same,MIC,[3],32 µg/mL
same,Combination (Antibiotic/Inhibitor) MICs: antibiotic,[3]; doxycycline with tegaserod,8 µg/mL
same,Combination (Antibiotic/Inhibitor) MICs: inhibitor,[3]; [8],8 µg/mL
same,Combination (Antibiotic/Inhibitor) MICs: inhibitor,[3]; tegaserod with doxycycline,16 µg/mL
same,Combination (Antibiotic/Inhibitor) MICs: inhibitor,[3]; tegaserod with tetracycline,16 µg/mL
same,Combination (Antibiotic/Inhibitor) MICs: antibiotic,[3]; tetracycline with tegaserod,32 µg/mL
same,Combination (Antibiotic/Inhibitor) MICs: antibiotic,[3]; [9],8 µg/mL
same,FICI,[3]; with doxycycline,0.8
same,Outcome,[3]; with doxycycline,indifferent (indifferent (0.5-4.0))
same,FICI,[3]; with tetracycline,0.8
same,Outcome,[3]; with tetracycline,indifferent (indifferent (0.5-4.0))
same,FICI,[3]; with tigecycline,0.5
same,Outcome,[3]; with tigecycline,indifferent (indifferent (0.5-4.0))
